Assay results reported in ChEMBL document CHEMBL3769355, “Fragment-Based Design of Selective Nanomolar Ligands of the CREBBP Bromodomain” (J Med Chem, 2016).
Activity calls are given as the source filed them. The calls are words filed in the database; no cut-off is given here.

Columns and labels:
[1] = target: T1, CREB-binding protein (Homo sapiens, UniProt Q92793); test: Competitive binding affinity to human His-tagged CREBBP expressed in T7 phage-infected Escherichia coli BL21(DE3) cells incubated for 1 hr by bromoscan assay
Target sequence in this assay (Q92793 whole entry): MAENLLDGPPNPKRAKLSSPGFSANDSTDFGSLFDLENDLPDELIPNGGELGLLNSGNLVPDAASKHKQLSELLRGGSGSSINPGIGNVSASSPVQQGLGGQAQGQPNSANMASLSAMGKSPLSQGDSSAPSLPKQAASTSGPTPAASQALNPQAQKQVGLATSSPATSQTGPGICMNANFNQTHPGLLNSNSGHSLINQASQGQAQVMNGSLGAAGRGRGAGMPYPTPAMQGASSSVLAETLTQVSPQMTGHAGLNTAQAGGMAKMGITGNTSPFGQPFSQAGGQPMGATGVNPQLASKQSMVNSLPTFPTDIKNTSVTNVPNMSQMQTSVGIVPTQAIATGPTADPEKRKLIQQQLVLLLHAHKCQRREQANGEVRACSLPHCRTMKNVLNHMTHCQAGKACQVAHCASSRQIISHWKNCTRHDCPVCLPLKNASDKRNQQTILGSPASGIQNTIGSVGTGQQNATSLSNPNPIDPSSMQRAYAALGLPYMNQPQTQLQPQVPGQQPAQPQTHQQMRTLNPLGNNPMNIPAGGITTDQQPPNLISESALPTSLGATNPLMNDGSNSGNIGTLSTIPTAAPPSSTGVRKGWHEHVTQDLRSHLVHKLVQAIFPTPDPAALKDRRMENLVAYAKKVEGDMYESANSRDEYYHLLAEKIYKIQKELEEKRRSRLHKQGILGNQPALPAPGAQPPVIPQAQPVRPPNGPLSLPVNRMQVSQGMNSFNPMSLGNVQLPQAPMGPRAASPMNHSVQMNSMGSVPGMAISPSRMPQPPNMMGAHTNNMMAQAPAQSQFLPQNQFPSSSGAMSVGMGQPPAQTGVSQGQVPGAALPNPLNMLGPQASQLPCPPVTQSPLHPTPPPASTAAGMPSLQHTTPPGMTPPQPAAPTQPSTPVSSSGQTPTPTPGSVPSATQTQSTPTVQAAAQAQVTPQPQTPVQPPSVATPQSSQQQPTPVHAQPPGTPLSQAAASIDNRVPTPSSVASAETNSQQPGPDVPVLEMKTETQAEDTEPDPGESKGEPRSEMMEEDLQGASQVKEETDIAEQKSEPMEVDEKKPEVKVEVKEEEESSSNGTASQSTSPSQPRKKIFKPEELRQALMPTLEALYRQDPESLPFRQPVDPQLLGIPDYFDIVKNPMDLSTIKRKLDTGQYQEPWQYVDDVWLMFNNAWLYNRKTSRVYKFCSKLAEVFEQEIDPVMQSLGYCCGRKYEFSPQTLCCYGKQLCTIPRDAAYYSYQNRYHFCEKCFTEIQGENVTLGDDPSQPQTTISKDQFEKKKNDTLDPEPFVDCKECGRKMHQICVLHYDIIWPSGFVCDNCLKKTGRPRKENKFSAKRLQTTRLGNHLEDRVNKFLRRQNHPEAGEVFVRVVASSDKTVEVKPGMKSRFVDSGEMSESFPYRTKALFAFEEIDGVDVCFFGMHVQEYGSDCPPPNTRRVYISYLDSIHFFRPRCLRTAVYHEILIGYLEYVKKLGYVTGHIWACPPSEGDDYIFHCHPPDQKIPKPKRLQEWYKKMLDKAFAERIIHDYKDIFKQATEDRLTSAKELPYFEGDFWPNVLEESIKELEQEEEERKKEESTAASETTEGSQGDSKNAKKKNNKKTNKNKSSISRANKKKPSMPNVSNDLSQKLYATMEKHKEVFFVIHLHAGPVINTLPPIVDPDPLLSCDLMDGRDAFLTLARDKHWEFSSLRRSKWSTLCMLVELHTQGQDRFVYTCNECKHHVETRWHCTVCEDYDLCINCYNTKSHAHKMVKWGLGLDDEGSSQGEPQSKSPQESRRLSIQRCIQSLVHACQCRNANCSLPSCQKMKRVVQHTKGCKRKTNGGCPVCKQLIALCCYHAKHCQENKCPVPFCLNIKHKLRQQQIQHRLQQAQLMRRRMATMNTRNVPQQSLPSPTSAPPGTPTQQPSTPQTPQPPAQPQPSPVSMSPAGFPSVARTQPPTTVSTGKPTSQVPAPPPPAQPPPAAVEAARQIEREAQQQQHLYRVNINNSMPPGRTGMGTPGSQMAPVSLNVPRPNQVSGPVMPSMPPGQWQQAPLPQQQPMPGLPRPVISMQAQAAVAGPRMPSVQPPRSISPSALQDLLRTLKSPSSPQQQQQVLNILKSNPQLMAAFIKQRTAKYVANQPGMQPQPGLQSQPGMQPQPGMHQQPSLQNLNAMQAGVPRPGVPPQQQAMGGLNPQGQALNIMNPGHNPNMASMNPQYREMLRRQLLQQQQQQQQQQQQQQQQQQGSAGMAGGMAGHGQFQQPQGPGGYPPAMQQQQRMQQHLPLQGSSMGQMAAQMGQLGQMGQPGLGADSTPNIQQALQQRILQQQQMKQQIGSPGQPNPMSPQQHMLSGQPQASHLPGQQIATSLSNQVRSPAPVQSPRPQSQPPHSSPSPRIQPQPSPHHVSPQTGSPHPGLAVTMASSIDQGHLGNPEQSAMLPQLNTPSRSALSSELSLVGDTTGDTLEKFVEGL

[2] = target: T1, CREB-binding protein; test: Inhibition of human recombinant GST-tagged CREBBP using non acetylated ligand 1 as substrate incubated for 2 hrs by TR-FRET assay
Target sequence in this assay (Q92793 whole entry): as above

[3] = target: T1, CREB-binding protein; test: Binding affinity to human His-tagged CREBBP expressed in Escherichia coli BL21(DE3) cells at 100 uM by SYPRO orange staining based fluorescence thermal shift assay
[4] = target: T2, Bromodomain-containing protein 4 (Homo sapiens, UniProt O60885); test: Competitive binding affinity to human BRD4 bromodomain 1 expressed in T7 phage-infected Escherichia coli BL21(DE3) cells incubated for 1 hr by bromoscan assay
[5] = target: Histone acetyltransferase p300 (Homo sapiens) (UniProt Q09472); test: Binding affinity to EP300 (unknown origin) at 100 uM by SYPRO orange staining based fluorescence thermal shift assay
[6] = target: T2, Bromodomain-containing protein 4; test: Competitive binding affinity to human BRD4 bromodomain 2 expressed in T7 phage-infected Escherichia coli BL21(DE3) cells incubated for 1 hr by bromoscan assay
[7] = target: T3, Bromodomain-containing protein 2 (Homo sapiens, UniProt P25440); test: Competitive binding affinity to human BRD2 bromodomain 1 expressed in T7 phage-infected Escherichia coli BL21(DE3) cells incubated for 1 hr by bromoscan assay
T3 sequence (P25440 whole entry): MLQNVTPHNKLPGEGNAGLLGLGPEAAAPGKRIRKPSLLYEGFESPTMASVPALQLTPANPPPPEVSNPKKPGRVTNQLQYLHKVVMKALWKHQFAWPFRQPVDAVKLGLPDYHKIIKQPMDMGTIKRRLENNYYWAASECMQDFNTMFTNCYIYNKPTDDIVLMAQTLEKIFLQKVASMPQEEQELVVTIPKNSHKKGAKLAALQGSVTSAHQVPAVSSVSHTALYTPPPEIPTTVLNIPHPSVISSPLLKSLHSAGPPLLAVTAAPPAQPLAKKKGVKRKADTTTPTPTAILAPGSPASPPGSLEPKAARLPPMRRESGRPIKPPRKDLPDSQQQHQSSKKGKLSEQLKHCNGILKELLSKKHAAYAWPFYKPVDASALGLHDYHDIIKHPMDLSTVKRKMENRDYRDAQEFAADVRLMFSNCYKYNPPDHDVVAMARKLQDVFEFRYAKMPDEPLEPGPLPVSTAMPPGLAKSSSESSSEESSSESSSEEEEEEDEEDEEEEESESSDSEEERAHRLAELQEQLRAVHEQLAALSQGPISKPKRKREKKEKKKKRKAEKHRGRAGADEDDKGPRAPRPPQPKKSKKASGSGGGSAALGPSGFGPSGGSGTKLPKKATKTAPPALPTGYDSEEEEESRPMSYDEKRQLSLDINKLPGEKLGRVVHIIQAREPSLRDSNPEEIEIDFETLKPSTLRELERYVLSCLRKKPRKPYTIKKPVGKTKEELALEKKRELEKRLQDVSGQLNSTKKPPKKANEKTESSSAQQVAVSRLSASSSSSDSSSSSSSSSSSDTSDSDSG

[8] = target: T3, Bromodomain-containing protein 2; test: Competitive binding affinity to human BRD2 bromodomain 2 expressed in T7 phage-infected Escherichia coli BL21(DE3) cells incubated for 1 hr by bromoscan assay
[9] = target: T2, Bromodomain-containing protein 4; test: Binding affinity to human BRD4 bromodomain 1 expressed in Escherichia coli BL21(DE3) cells at 100 uM by SYPRO orange staining based fluorescence thermal shift assay
[10] = target: T1, CREB-binding protein; test: Binding affinity to human His-tagged CREBBP expressed in Escherichia coli BL21(DE3) cells by isothermal titration calorimetry
Target sequence in this assay (Q92793 whole entry): as the sequence (Q92793 whole entry) above

[11] = system: ML-2; test: (§1) Cytotoxicity against human ML2 cells assessed as growth inhibition after 48 hrs by resazurin assay; type: functional
[12] = system: MOLM-13; test: (§2) Cytotoxicity against human MOLM13 cells assessed as assessed as growth inhibition after 48 hrs by resazurin assay; type: functional
[13] = system: HL-60; test: Cytotoxicity against human HL60 cells assessed as assessed as growth inhibition after 48 hrs by resazurin assay; type: functional, cell-based
[14] = as §1; type: functional; settings: ML-2, 48 h
[15] = as §2; type: functional; settings: MOLM-13, 48 h
[16] = target: T1, CREB-binding protein; test: Competitive binding affinity to human His-tagged CREBBP expressed in T7 phage-infected Escherichia coli BL21(DE3) cells at 50 uM incubated for 1 hr by bromoscan assay relative to control
[17] = target: T1, CREB-binding protein; test: Competitive binding affinity to human His-tagged CREBBP expressed in T7 phage-infected Escherichia coli BL21(DE3) cells at 25 uM incubated for 1 hr by bromoscan assay relative to control
[18] = target: T1, CREB-binding protein; test: Binding affinity to human His-tagged CREBBP expressed in Escherichia coli BL21(DE3) cells at 50 uM by SYPRO orange staining based fluorescence thermal shift assay
[19] = target: Histone acetyltransferase p300 (Homo sapiens) (UniProt Q09472); test: Binding affinity to EP300 (unknown origin) at 50 uM by SYPRO orange staining based fluorescence thermal shift assay

SMILES | Kd [1] [µM] | IC50 [2] [µM] | ΔTm [3] [°C] | ΔTm [5] [°C] | growth inhibition (GI) [13] | other results
CCOc1ccc(C(C)=O)cc1NC(=O)c1cccc(C(=O)OC)c1 | 0.49 | 5 | 2.8 |  |  | 
CCOc1ccc(C(C)=O)cc1NC(=O)c1cc(C(=O)O)cc(-c2ccoc2)c1 | 0.17 | 1 | 5.2 | 5.9 | Active | Kd [4]: 9.8 µM; Kd [6]: > 36 µM; Kd [7]: 24 µM; Kd [8]: 24 µM; ΔTm [9]: 1.5 °C; Kd [10]: 0.3 µM; growth inhibition (GI) [11]: Active; growth inhibition (GI) [12]: Active
CCOc1ccc(C(C)=O)cc1NC(=O)c1cccc(S(=O)(=O)Nc2ccccc2)c1 |  | > 10 | 0 | 0 |  | 
CCOc1ccc(C(C)=O)cc1NC(=O)c1cc(COC2CCCCO2)cc(C(=O)O)c1 (stereo unspecified) | 0.37 | 1 | 6 | 5.9 | Active | ΔTm [9]: 1.7 °C; GI50 [14]: 14.4 µM; GI50 [15]: 5.3 µM
CC(=O)c1ccc(OCC(C)C)c(NC(=O)c2cccc(C(=O)O)c2)c1 |  |  | 3.5 | 3 | Active | growth inhibition (GI) [11]: Active; growth inhibition (GI) [12]: Active
CCOc1ccc(C(C)=O)cc1NC(=O)c1cc(CO)cc(C(=O)O)c1 |  | 3 | 3.8 | 3.7 | Active | growth inhibition (GI) [11]: Active; growth inhibition (GI) [12]: Active
CC(=O)c1cccc(NC(=O)Cn2c(=O)c3ccccc3n3nc(C)cc23)c1 |  |  |  |  |  | Activity [17]: 22%
CCOc1ccc(C(C)=O)cc1NC(=O)c1cccc(NS(=O)(=O)c2ccccc2)c1 |  |  | 0.5 | 0.4 |  | 
CCOc1ccc(C(C)=O)cc1NC(=O)c1cc(C(=O)O)cc(-c2ccncc2)c1 |  | 3 |  |  |  | ΔTm [18]: 4.1 °C; ΔTm [19]: 3.9 °C
CC(=O)c1ccc(N2CCOCC2)c(NC(=O)c2cccc(C(=O)O)c2)c1 |  |  | 1.4 | 1.3 |  | 
CC(=O)c1ccc(OCC2CC2)c(NC(=O)c2cccc(C(=O)O)c2)c1 |  |  | 3.4 | 3.6 | Active | growth inhibition (GI) [11]: Active; growth inhibition (GI) [12]: Active
CCOc1ccc(C(=O)NC)cc1NC(=O)c1cccc(C(=O)O)c1 | 37 |  | 1.1 |  |  | 
CC(=O)c1ccc(C2CC2)c(NC(=O)c2cccc(C(=O)O)c2)c1 |  | 15 | 3.1 | 3.1 |  | 
CC(=O)c1ccc(OCc2ccccc2)c(NC(=O)c2cccc(C(=O)O)c2)c1 |  |  | 3.3 | 2.6 |  | 
CCOc1ccc(C(C)=O)cc1NC(=O)c1cccc(-n2cnnn2)c1 |  | 7.5 | 3.3 | 2.6 |  | 
CCOc1ccc(C(C)=O)cc1C(=O)Nc1cccc(C(=O)O)c1 | 2.5 |  | 3.4 |  | Active | growth inhibition (GI) [11]: Active; growth inhibition (GI) [12]: Active
CC(=O)c1cccc(NC(=O)N2C[C@@H](C)O[C@@H](c3ccccc3)C2)c1 |  |  |  |  |  | Activity [16]: 9.4%
CC(=O)c1cccc(NC(=O)c2c(-n3cnnn3)sc(C)c2C)c1 | 29 |  |  |  |  | Activity [17]: 2%

Continued, in another order:

Kd [1] [µM] | IC50 [2] [µM] | ΔTm [3] [°C] | ΔTm [5] [°C] | SMILES | growth inhibition (GI) [13] | other results
 | > 100 | 0.2 |  | CC(=O)c1ccc(C)c(NC(=O)/C=C/C(=O)O)c1 |  | 
 | 64 | 1.9 |  | CCOc1ccc(C(C)=O)cc1NC(=O)c1ccccc1C(=O)O |  | 
0.53 | 2 | 5.1 | 4.6 | CCOc1ccc(C(C)=O)cc1NC(=O)c1cc(COC)cc(C(=O)O)c1 | Active | Kd [4]: 25 µM; Kd [6]: > 50 µM; Kd [7]: > 50 µM; Kd [8]: > 50 µM; ΔTm [9]: 1.3 °C; Kd [10]: 0.8 µM; growth inhibition (GI) [11]: Active; growth inhibition (GI) [12]: Active
4.7 |  | 1.8 |  | CCOc1ccc(C(C)=O)cc1NC(=O)/C=C/C(=O)O |  | Activity [16]: 2.5%
 | > 100 | 1.1 |  | CCOc1ccc(C(C)=O)cc1NC(=O)C1CC1C(=O)O (stereo unspecified) |  | 
 | 30 | 0.1 |  | CC(=O)c1cccc(NC(=O)/C=C/C(=O)O)c1 |  | 
 | 7.4 | 3.8 | 3.4 | CCCOc1ccc(C(C)=O)cc1NC(=O)c1cccc(C(=O)O)c1 | Active | growth inhibition (GI) [11]: Active; growth inhibition (GI) [12]: Active
0.67 | 8.7 | 3.8 | 3.4 | CCOc1ccc(C(C)=O)cc1NC(=O)c1cccc(C(=O)O)c1 | Active | Kd [4]: > 50 µM; Kd [6]: > 50 µM; Kd [7]: > 50 µM; Kd [8]: > 50 µM; ΔTm [9]: 0.4 °C; Kd [10]: 2 µM; growth inhibition (GI) [11]: Active; growth inhibition (GI) [12]: Active
 | 60 | 1.1 |  | COc1ccc(C(C)=O)cc1NC(=O)/C=C/C(=O)O |  | 
 | > 100 | -0.1 |  | CC(=O)c1ccc(F)c(NC(=O)/C=C/C(=O)O)c1 |  | 
